Reference: patent US8946283B2, “Composition for preventing or treating obesity, dyslipidemia, fatty liver or diabetes containing indole-3-carbinol derivative as active ingredient” (Industry-Academic Cooperation Foundation, Yonsei University, priority 2011, dated 2015)

Legend:
3T3-L1 cells = experiment: Inhibition of adipocyte differentiation, Oil Red O staining of triglyceride; type: cell-based, mouse; conditions: for differentiation of the preadipocytes 3T3L1: 0.1, 1, 10, 50 and 100 μM, 14 days, vs DMSO control; for triglyceride accumulation in cells: 3T3-L1 cells, FIGS. 1-3
Procedure: Mouse adipocyte cell line (3T3-L1) was used to investigate the effect of various indole-3-carbinol derivatives on differentiation and growth of adipocytes. The preadipocytes, 3T3-L1 cells, were seeded on a 12-well plate and cultured to confluency using Dulbecco's modified Eagle's medium (DMEM) containing 1% penicillin-streptomycin, 1% nonessential amino acid and 10% fatal bovine serum (FBS), in a 5% CO2 incubator at 37° C. The 3T3-L1 cells grown to confluency were cultured for 2 days in MDI medium containing 0.5 mM isobutylmethylxanthine, 1 μM dexamethasone and 1 μg/mL insulin to differentiate them into adipocytes. Then, the cells were further cultivated in DMEM containing 1 μg/mL insulin to differentiate them into mature adipocytes. The cells were further cultured for 10 more days while replacing DMEM every other day to obtain fully differentiated adipocytes.
From the first day when MDI was added to the 3T3-L1 cells, 16 indole-3-carbinol derivative compounds were treated at concentrations of 0.1, 1, 10, 50 and 100 μM with 2-day intervals. The structure and molecular weight of the 16 indole-3-carbinol derivatives (B518, B521, B525, B528, B538, B540, B542, B544, B545, B546, B547, B549, B551, B556, B558 and B561) are described in Table 1. The derivative compounds were used after being dissolved in DMSO. Only DMSO was added to the negative control group.
After culturing for a total of 14 days, the medium was removed when the differentiation was completed and lipid droplets in the differentiated adipocytes were stained. For this, the cells were washed twice with phosphate buffered saline (PBS), fixed in 10% buffered neutral formalin (BNF) for 1 hour, washed once again with PBS, stained for 1 hour by adding 1 mL of Oil Red O dye, which specifically stains fat red, on the 12-well plate, and washed twice with distilled water. In order to measure the level of triglyceride contained in the differentiated 3T3-L1 cells, the stained lipid droplets were dissolved in 1 mL of isobutanol and optical density (OD) value was measured at 600 nm.

[1] = Body weight gain and visceral fat weight of mice fed high-fat test diet; type: in vivo, C57BL/6J mice; conditions: 0.05% in high-fat diet, 10 weeks
Procedure: (§1) The obesity-inducing control diet used in the test was high-fat diet (HFD: 40% fat calorie, 17 g lard+3% corn oil/100 g diet). Diets supplemented with indole-3-carbinol derivatives (B525 and B528) had the same composition as HFD, except that each derivative was included at 0.05% (see Table 2). The diabetic drug metformin was added at 0.1% or the hyperlipidemic drug atorvastatin was added at 0.01% to HFD as controls. The normal diet group (Chow) was fed with commercially available rodent chow.
(§2) 56 5-week-old male C57BL/6J mice (Orient, Korea) were accustomed to the laboratory environment for 1 week while feeding solid feed. Then, they were randomly divided into normal diet, high-fat diet and test groups (n=8/group) and bred for a total of 10 weeks. The diet was given between 10 and 11 a.m. every day together with water. Food intake was measured every day and body weight was measured once a week. In order to avoid transient body weight increase after feed intake, body weight was measured 2 hours after removing the feed. After fasting the test animal for at least 12 hours and anesthetizing with diethyl ether, blood, liver and visceral fat (epididymal fat, perirenal fat, mesenteric fat and retroperitoneal fat) were taken and weighed after washing with 0.1 M PBS (pH 7.4). Blood taken from the abdominal aorta was centrifuged at 1000×g for 15 minutes to separate the plasma.

[2] = Biochemical analysis of blood (plasma lipids) of mice fed high-fat test diet; type: in vivo, C57BL/6J mice; conditions: 0.05% in high-fat diet, 10 weeks
Procedure: as §1, §2
After 10 weeks of breeding, total cholesterol, triglyceride and glucose levels in the plasma and lipid level in the liver tissue were measured as follows. Total cholesterol, triglyceride and free fatty acid levels in the plasma were measured twice for each using a commercially available kit (Bio Clinical System).

[3] = Fasting blood sugar and oral glucose tolerance test in mice fed high-fat test diet; type: in vivo, C57BL/6J mice
Procedure: as §1, §2
On week 8 after feeding the test diet, oral glucose tolerance test was performed for all the groups. After fasting the mouse for 16 hours, glucose (2 g glucose/10 mL distilled water/kg body weight) was orally administered. Before and 15, 30, 60 and 120 minutes after the oral administration, the tail end was cut by about […] and blood was taken. Glucose level was measured using a glucose meter.

[4] = Liver weight and lipid level in liver tissue of mice fed high-fat test diet; type: in vivo, C57BL/6J mice; conditions: 0.05% in high-fat diet, 10 weeks
Procedure: as §1, §2
Lipids were extracted from the liver tissue according to Folch et al.'s method Folch J et al., J Biol. Chem. 226: 497-509 (1957)). After adding 1 mL of distilled water to 0.25 g of liver tissue, the liver tissue was homogenized using a Polytron homogenizer (IKA-Werke GmbH & Co., Ultra-Turrax, Staufen, Germany). After adding 5 mL of chloroform:methanol solution (2:1, v/v) to the homogenate and mixing well, the mixture was centrifuged at 1000×g for 10 minutes. After adding 2 mL of chloroform:methanol solution (2:1, v/v) again to the supernatant, the same procedure was repeated to completely separate the lipid components of the liver. After adding 3 mL of chloroform:methanol:0.05% CaCl2 (3:48:47, v/v/v) solution to the remaining pellets and mixing well for 1 minute, followed by centrifugation at 1000×g for 10 minutes, the resulting pellets were completely dried with nitrogen gas. The dried lipids were dissolved in 1 mL of methanol and then analyzed.
The same kit (Bio Clinical System) as that used for the plasma analysis was used to measure the triglyceride and cholesterol levels of the liver tissue.

| Structure (SMILES) | differentiation of the preadipocytes 3T3L1 (3T3-L1 cells) | also measured |
| --- | --- | --- |
| O=C1N(CCc2ccccc2)c2ccc(Br)cc2C1(O)c1c[nH]c2ccccc12 (stereo not drawn) [B518, 5′-Bromo-3′-hydroxy-1′-(2-phenylethyl)-1′,3′-dihydro-1H,2′H-3,3′-biindol-2′-one] | reduced the differentiation of the preadipocytes 3T3L1 in a concentration-dependent manner | triglyceride accumulation in cells (3T3-L1 cells): effectively reduce triglyceride accumulation in cells |
| CN1C(=O)C(O)(c2c[nH]c3ccccc23)c2cc(Cl)ccc21 (stereo not drawn) [B521, 5′-Chloro-3′-hydroxy-1′-methyl-1′,3′-dihydro-1H,2′H-3,3′-biindol-2′-one] | reduced the differentiation of the preadipocytes 3T3L1 in a concentration-dependent manner | – |
| C=CCN1C(=O)C(O)(c2c(C)[nH]c3ccccc23)c2cc(Br)ccc21 (stereo not drawn) [B525, 1′-Allyl-5′-bromo-3′-hydroxy-2-methyl-1′,3′-dihydro-1H,2′H-3,3′-biindol-2′-one] | reduced the differentiation of the preadipocytes 3T3L1 in a concentration-dependent manner | triglyceride accumulation in cells (3T3-L1 cells): effectively reduce triglyceride accumulation in cells; decrease of body weight gain as compared to HFD [1]: 21%; reduction of total visceral fat weight as compared to HFD [1]: 20%; weight of epididymal fat, perirenal fat, mesenteric fat and retroperitoneal fat as compared to HFD [1]: significantly reduced; reduction of arteriosclerotic index in blood plasma as compared to HFD [2]: 30%; reduction of total cholesterol level in blood plasma as compared to HFD [2]: 18%; reduction of triglyceride level in blood plasma as compared to HFD [2]: 32%; reduction of fasting blood sugar level as compared to HFD ([3]; 0.05% in high-fat diet, 8 weeks): 37%; effect on oral glucose tolerance compared to controls metformin and atorvastatin ([3]; OGTT, week 8): excellent effect of improving oral glucose tolerance, better than the controls metformin and atorvastatin; appearance of liver tissue as compared to HFD [4]: smaller and darker liver tissue; decrease of cholesterol level in liver tissue as compared to HFD [4]: 22%; decrease of liver weight as compared to HFD [4]: 26%; decrease of triglyceride level in liver tissue as compared to HFD [4]: 18% |
| O=C1N(CCc2ccccc2)c2ccccc2C1(O)c1c[nH]c2ccccc12 (stereo not drawn) [B538, 3′-Hydroxy-1′-(2-phenylethyl)-1′,3′-dihydro-1H,2′H-3,3′-biindol-2′-one] | reduced the differentiation of the preadipocytes 3T3L1 in a concentration-dependent manner | triglyceride accumulation in cells (3T3-L1 cells): effectively reduce triglyceride accumulation in cells |
| CCCCN1C(=O)C(O)(c2c[nH]c3ccccc23)c2cc(Br)ccc21 (stereo not drawn) [B540, 5′-Bromo-1′-butyl-3′-hydroxy-1′,3′-dihydro-1H,2′H-3,3′-biindol-2′-one] | reduced the differentiation of the preadipocytes 3T3L1 in a concentration-dependent manner | – |
| O=C1N(Cc2ccccc2)c2ccccc2C1(O)c1c[nH]c2ccccc12 (stereo not drawn) [B542, 1′-Benzyl-3′-hydroxy-1′,3′-dihydro-1H,2′H-3,3′-biindol-2′-one] | reduced the differentiation of the preadipocytes 3T3L1 in a concentration-dependent manner | – |
| CCN1C(=O)C(O)(c2c[nH]c3ccccc23)c2cc(Br)ccc21 (stereo not drawn) [B544, 5′-Bromo-1′-ethyl-3′-hydroxy-1′,3′-dihydro-1H,2′H-3,3′-biindol-2′-one] | reduced the differentiation of the preadipocytes 3T3L1 in a concentration-dependent manner | – |
| Cc1ccc(CN2C(=O)C(O)(c3c[nH]c4ccccc34)c3ccccc32)cc1 (stereo not drawn) [B545, 3′-Hydroxy-1′-(4-methylbenzyl)-1′,3′-dihydro-1H,2′H-3,3′-biindol-2′-one] | reduced the differentiation of the preadipocytes 3T3L1 in a concentration-dependent manner | – |
| O=C1N(Cc2ccc(Cl)cc2)c2ccccc2C1(O)c1c[nH]c2ccccc12 (stereo not drawn) [B546, 1′-(4-Chlorobenzyl)-3′-hydroxy-1′,3′-dihydro-1H,2′H-3,3′-biindol-2′-one] | reduced the differentiation of the preadipocytes 3T3L1 in a concentration-dependent manner | – |
| Cc1[nH]c2ccccc2c1C1(O)C(=O)N(CCc2ccccc2)c2ccc(Cl)cc21 (stereo not drawn) [B547, 5′-Chloro-3′-hydroxy-2-methyl-1′-(2-phenylethyl)-1′,3′-dihydro-1H,2′H-3,3′-biindol-2′-one] | reduced the differentiation of the preadipocytes 3T3L1 in a concentration-dependent manner | – |
| Cc1ccc(C)c(CN2C(=O)C(O)(c3c(C)[nH]c4ccccc34)c3ccccc32)c1 (stereo not drawn) [B549, 1′-(2,5-Dimethylbenzyl)-3′-hydroxy-2-methyl-1′,3′-dihydro-1H,2′H-3,3′-biindol-2′-one] | reduced the differentiation of the preadipocytes 3T3L1 in a concentration-dependent manner | – |
| Cc1[nH]c2ccccc2c1C1(O)C(=O)N(Cc2cccs2)c2ccccc21 (stereo not drawn) [B551, 3′-Hydroxy-2-methyl-1′-(2-thienylmethyl)-1′,3′-dihydro-1H,2′H-3,3′-biindol-2′-one] | reduced the differentiation of the preadipocytes 3T3L1 in a concentration-dependent manner | – |
| Cc1ccc(OCCN2C(=O)C(O)(c3c(C)[nH]c4ccccc34)c3ccccc32)cc1 (stereo not drawn) [B556, 3′-Hydroxy-2-methyl-1′-[2-(4-methylphenoxy)ethyl]-1′,3′-dihydro-1H,2′H-3,3′-biindol-2′-one] | reduced the differentiation of the preadipocytes 3T3L1 in a concentration-dependent manner | – |
| COc1ccccc1OCCN1C(=O)C(O)(c2c(C)[nH]c3ccccc23)c2ccccc21 (stereo not drawn) [B558, 3′-Hydroxy-1′-[2-(2-methoxyphenoxy)ethyl]-2-methyl-1′,3′-dihydro-1H,2′H-3,3′-biindol-2′-one] | reduced the differentiation of the preadipocytes 3T3L1 in a concentration-dependent manner | – |
| CC(=O)c1[nH]c2ccccc2c1C(=O)O [B561, 2-Acetyl-1H-indole-3-carboxylic acid] | reduced the differentiation of the preadipocytes 3T3L1 in a concentration-dependent manner | – |
